Measured values from US5763198A, “Screening assays for compounds” (Sugen, Inc., priority 1994, dated 1998).
pIC50: −log10 of the molar value. Read-outs that look alike come from different tables or passages of the source.

Molecular target: T1, EGF-R (Homo sapiens, UniProt P00533)
T1 construct: another EGFR over-expressing human epidermoid carcinoma cell line, A431 (ATCC CRL 1555); endogenous in cells; host or cells: A431 (ATCC CRL 1555)
Assay: Cell-free screening assay for EGF-R kinase activity (EGFR immobilized from A431 lysate)
Type: biochemical
Conditions: read-out: IC50, EGF-R kinase activity in a cell free system
Procedure: This assay provides a method for measuring the effects of test substances on the kinase activity of specific targets in a cell-free system. The target substrate is isolated from cell lysates by immobilization in microtiter plate wells coated with anti-substrate antibody. Following addition of the test substance, ATP and a bivalent cation are added to the wells to initiate the kinase-reaction. Concentrations of ATP can be varied to assess whether a test compound competes for ATP or substrate interaction. […] Phosphorylation of tyrosine residues on the immobilized target is then detected using antiphosphotyrosine antiserum.
The materials and reagents used are described in Section 6.1 with the exception that the cells used to prepare the cell lysate were another EGFR over-expressing human epidermoid carcinoma cell line, A431 (ATCC CRL 1555). Test substances were obtained from LC Service Corp (Woburn, Mass.).
Preparation of the assay plates was performed as described in Section 6.2.1.
Cells (A431) were grown to 80-90% confluency in DMEM (Gibco) plus 10% calf serum then washed twice with PBS. HNTG was added and the dish place on ice for five minutes. […] The cleared lysate can be stored at -80 C until used.
Seven μg of cell lysate was added to each well of a prepared assay plate plus PBS to make a final volume of 150 μl. […] The plate was incubated for 30 minutes, shaking, at room temperature.
The kinase reaction was initiated by the addition of 15 μl of ATP/Mn mix (in 50 mM MnCL2, final concentration of ATP 1 μM, 3 μM or 10 μM) for a total volume of […]. The plate was incubated for 5 minutes at room temperature, shaking, then washed 5 times with TBST. The amount of phosphorylation present was measured as described in Section 6.2.3.

T1 sequence (P00533 25-1210): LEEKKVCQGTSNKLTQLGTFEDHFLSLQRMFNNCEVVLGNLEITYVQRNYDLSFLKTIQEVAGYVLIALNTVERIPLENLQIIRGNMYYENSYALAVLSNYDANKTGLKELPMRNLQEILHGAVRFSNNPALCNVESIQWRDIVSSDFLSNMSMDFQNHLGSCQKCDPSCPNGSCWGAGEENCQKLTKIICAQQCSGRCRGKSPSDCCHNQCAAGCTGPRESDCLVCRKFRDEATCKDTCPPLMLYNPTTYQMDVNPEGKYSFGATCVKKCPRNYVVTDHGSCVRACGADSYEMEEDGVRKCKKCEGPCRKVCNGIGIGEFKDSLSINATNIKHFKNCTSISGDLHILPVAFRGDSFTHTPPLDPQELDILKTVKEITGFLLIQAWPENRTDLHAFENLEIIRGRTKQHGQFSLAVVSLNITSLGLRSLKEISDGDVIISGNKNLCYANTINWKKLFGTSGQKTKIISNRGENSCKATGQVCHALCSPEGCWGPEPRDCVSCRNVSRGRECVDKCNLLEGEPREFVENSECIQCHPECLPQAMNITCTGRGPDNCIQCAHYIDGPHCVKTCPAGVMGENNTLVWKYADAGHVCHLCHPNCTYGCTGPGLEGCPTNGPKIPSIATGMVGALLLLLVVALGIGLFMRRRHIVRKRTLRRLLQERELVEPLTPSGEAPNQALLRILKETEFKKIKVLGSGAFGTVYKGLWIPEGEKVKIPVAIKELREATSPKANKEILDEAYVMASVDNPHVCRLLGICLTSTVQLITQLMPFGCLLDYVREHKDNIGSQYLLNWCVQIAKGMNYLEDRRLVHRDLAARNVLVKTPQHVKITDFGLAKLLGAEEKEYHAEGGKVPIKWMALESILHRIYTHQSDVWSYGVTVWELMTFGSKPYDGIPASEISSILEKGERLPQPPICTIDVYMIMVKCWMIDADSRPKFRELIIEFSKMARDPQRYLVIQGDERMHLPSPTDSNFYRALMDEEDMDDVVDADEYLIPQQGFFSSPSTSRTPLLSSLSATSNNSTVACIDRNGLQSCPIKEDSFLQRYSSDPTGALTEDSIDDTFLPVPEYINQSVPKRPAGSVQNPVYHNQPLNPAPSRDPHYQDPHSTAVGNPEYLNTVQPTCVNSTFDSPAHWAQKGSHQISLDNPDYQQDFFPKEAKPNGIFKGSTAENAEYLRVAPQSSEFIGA

pIC50 (ATP conc. 3 μM)	pIC50 (ATP conc. 10 μM)	SMILES	pIC50 (ATP conc. 1 μM)
–	–	COC1C=CC=C(C)C(=O)NC2=CC(=O)C=C(C2=O)C(OC)C(C)CC(OC)C(OC)C(C)C=C(C)C1OC(N)=O (stereo not shown) [Herbimycin A]	< 4.00
7.00	4.26	O=C(O)c1cc(N(Cc2ccccc2O)Cc2cc(O)ccc2O)ccc1O [Lavendustin A]	7.10
